Reference: patent EP0755928B1, “5-AMINOFLAVONE DERIVATIVES” (KYOWA HAKKO KOGYO CO., Ltd., priority 1995, dated 1996)

How the values were obtained:
[1] = system: Human mammary cancer MCF-7 cell; experiment: Human mammary cancer MCF-7 cell growth inhibition test (neutral red); assay type: cell-based; settings: MCF7, MCF-7 cells, 72 hours, medium with 10^-8M estradiol, neutral red absorbance at 550 nm
Procedure: Human mammary cancer MCF-7 cell growth inhibition test
Each 0.1 ml of MCF-7 cells which had been prepared in a concentration of 5 x 10^4/ml using a medium prepared by adding 10% bovine fetal serum, 10^-8M estradiol (manufactured by Sigma), 100 units/ml penicillin and 100 µg/ml streptomycin to RPMI1640 medium (referred to as Medium B hereinafter) was distributed in each well of 96 well-microtiter plate. […] The supernatant was removed, each 0.1 ml of Medium B containing 0.02% neutral red was added to the residue, the mixture was allowed to stand at 37 °C for 1 hour in a CO2 gas incubator and the cells were stained by neutral red dye. The supernatant was removed and the residue was washed once with a physiological saline. Then, the dye was extracted with 0.001 N hydrochloric acid/30% ethanol and the absorbance at 550 nm was determined with a microplatereader.

[2] = system: Mature female BALB/c mice; experiment: Effect on uterus weight of mature mouse (anti-estrogenic activity); assay type: in vivo; settings: dose 25 mg/kg, orally, repeatedly for 4 days; uteri isolated after 5 days; not treated group 106 mg
Procedure: The effect against the decrease in uterus weight of mature mouse
Mature female BALB/c mice, 9 weeks age, were divided into two groups (6 animals per group). The test compounds were repeatedly administered orally to one group for 4 days. After 5 days, the uteri were isolated and the weight thereof was measured.

[3] = system: estrogen-dependent human mammary cancer MCF-7; experiment: Antitumor effects against estrogen-dependent human mammary cancer MCF-7 transplanted in nude mice; assay type: in vivo, female BALB/c-nu/nu mouse; settings: Mus musculus, MCF7, po; dose 25 mg/kg orally, 5 days per week for two weeks; ratio of V/V0 of treated group to control group; judgement date day 14 to 25, differs per compound; read-out: T/C
Text: Antitumor effects against estrogen-dependent human mammary cancer MCF-7
The tumor fragment (2 mm x 2 mm x 2mm) of human hormone dependent mammary cancer MCF-7 was transplanted subcutaneously in the flank of female BALB/c-nu/nu mouse (Nihon Crea), 7 to 9 weeks age. […] Mice having the tumor volume 25 to 200 mm^3 were selected 3 to 4 weeks after transplantation, and the test compounds were orally administered repeatedly to the groups (5 animals per group) for 5 days per a week, for total two weeks. In addition, estradiol propionate was administered again on the date of initial administration of the test compounds. Length and width of the tumor were determined every day, and the tumor volumes were calculated by means of ellipsoid approximation according to the following equation: […] [formula]
The tumor volume at initial administration (V0) and on the day of judgement (V) was calculated, and the tumor growth rate (V/V0) was calculated. T/C value was obtained as the ratio of V/V0 value of treated group relative to that of control group.

CCN(CC)C(=O)OCc1c(F)c(N)c2c(=O)cc(-c3ccc(N)c(F)c3)oc2c1F [Compound 1, 5-Amino-2-(4-amino-3-fluorophenyl)-7-diethylcarbamoyloxymethyl-6,8-difluoro-4H-1-benzopyran-4-one]
IC50 [1]: 350 nM

CN(C)CC(=O)OCc1c(F)c(N)c2c(=O)cc(-c3ccc(N)c(F)c3)oc2c1F [Compound 6, 5-Amino-2-(4-amino-3-fluorophenyl) -7-dimethylaminoacetoxymethyl-6,8-difluoro-4H-1-benzopyran-4-one]
weight of uterus [2]: 67 mg
IC50 [1]: 26 nM
response vs control in vivo at 25 mg/kg [3]: 1.2%

COC(=O)CNCC(=O)OCc1c(F)c(N)c2c(=O)cc(-c3ccc(N)c(F)c3)oc2c1F [Compound 14, 5-Amino-2-(4-amino-3-fluorophenyl)-6,8-difluoro-7-methoxycarbonylmethylaminoacetoxymethyl-4H-1-benzopyran-4-one]
IC50 [1]: 13 nM
response vs control in vivo at 25 mg/kg [3]: 1.3%

C=CCOC(=O)OCc1c(F)c(N)c2c(=O)cc(-c3ccc(N)c(F)c3)oc2c1F [Compound 15, 7-Allyloxycarbonyloxymethyl-5-amino-2-(4-amino-3-fluorophenyl)-6,8-difluoro-4H-1-benzopyran-4-one]
IC50 [1]: 81 nM

CN(C)CCC(=O)OCc1c(F)c(N)c2c(=O)cc(-c3ccc(N)c(F)c3)oc2c1F [Compound 7, 5-Amino-2-(4-amino-3-fluorophenyl)-7-(3-dimethylaminopropionyl) oxymethyl-6,8-difluoro-4H-1-benzopyran-4-one]
IC50 [1]: 19 nM
response vs control in vivo at 25 mg/kg [3]: 4.1%

CN1CCN(C(=O)OCc2c(F)c(N)c3c(=O)cc(-c4ccc(N)c(F)c4)oc3c2F)CC1 [Compound 2, 5-Amino-2-(4-amino-3-fluorophenyl)-6,8-difluoro-7-(4-methylpiperazinyl)carbonyloxymethyl-4H-1-benzopyran-4-one]
IC50 [1]: 230 nM

CN(C)CCN(C)CC(=O)OCc1c(F)c(N)c2c(=O)cc(-c3ccc(N)c(F)c3)oc2c1F [Compound 13, 5-Amino-2-(4-amino-3-fluorophenyl)-7-[N-(2-dimethylaminoethyl)-N-methylamino)acetoxymethyl-6,8-difluoro-4H-1-benzopyran-4-one]
response vs control in vivo at 25 mg/kg [3]: 2.2%

Nc1ccc(-c2cc(=O)c3c(N)c(F)c(COC(=O)CN4CCC(O)CC4)c(F)c3o2)cc1F [Compound 12, 5-Amino-2-(4-amino-3-fluorophenyl) -6,8-difluoro-7-(4-hydroxypiperidino)acetoxymethyl-4H-1-benzopyran-4-one]
IC50 [1]: 18 nM
response vs control in vivo at 25 mg/kg [3]: 3.5%

Nc1ccc(-c2cc(=O)c3c(N)c(F)c(COC(=O)CN4CCCCC4)c(F)c3o2)cc1F [Compound 9, 5-Amino-2-(4-amino-3-fluorophenyl)-6,8-difluoro-7-piperidinoacetoxymethyl-4H-1-benzopyran-4-one]
IC50 [1]: 33 nM
response vs control in vivo at 25 mg/kg [3]: 4.2%

Nc1ccc(-c2cc(=O)c3c(N)c(F)c(COC(=O)CN4CCOCC4)c(F)c3o2)cc1F [Compound 11, 5-Amino-2-(4-amino-3-fluorophenyl)-6,8-difluoro-7-morpholinoacetoxymethyl-4H-1-benzopyran-4-one]
IC50 [1]: 17 nM
response vs control in vivo at 25 mg/kg [3]: 4.4%

CN1CCN(CC(=O)OCc2c(F)c(N)c3c(=O)cc(-c4ccc(N)c(F)c4)oc3c2F)CC1 [Compound 10, 5-Amino-2-(4-amino-3-fluorophenyl)-6,8-difluoro-7-(4-methylpiperazinyl)acetoxymethyl-4H-1-benzopyran-4-one]
IC50 [1]: 87 nM
response vs control in vivo at 25 mg/kg [3]: 7%

CN(C)CCCC(=O)OCc1c(F)c(N)c2c(=O)cc(-c3ccc(N)c(F)c3)oc2c1F [Compound 8, 5-A-mino-2-(4-amino-3-fluorophenyl)-7-(4-dimethylaminobutyryl)oxymethyl-6,8-difluoro-4H-1-benzopyran-4-one]
IC50 [1]: 29 nM
response vs control in vivo at 25 mg/kg [3]: 15%
